What was measured:
MLKL [1] = target: T1, MLKL (Homo sapiens, UniProt Q8NB16); assay: MLKL degradation assay in HepG2 cell line (western blot); type: cell-based; design: endogenous in cells; host or cells: HepG2 or HaCaT; conditions: cell line not given; for Degradation assay (Degradation %) 1 μM: compound 1 μM; for Degradation assay (Degradation %) 10 μM: compound 10 μM
T1 sequence (Q8NB16 1-471): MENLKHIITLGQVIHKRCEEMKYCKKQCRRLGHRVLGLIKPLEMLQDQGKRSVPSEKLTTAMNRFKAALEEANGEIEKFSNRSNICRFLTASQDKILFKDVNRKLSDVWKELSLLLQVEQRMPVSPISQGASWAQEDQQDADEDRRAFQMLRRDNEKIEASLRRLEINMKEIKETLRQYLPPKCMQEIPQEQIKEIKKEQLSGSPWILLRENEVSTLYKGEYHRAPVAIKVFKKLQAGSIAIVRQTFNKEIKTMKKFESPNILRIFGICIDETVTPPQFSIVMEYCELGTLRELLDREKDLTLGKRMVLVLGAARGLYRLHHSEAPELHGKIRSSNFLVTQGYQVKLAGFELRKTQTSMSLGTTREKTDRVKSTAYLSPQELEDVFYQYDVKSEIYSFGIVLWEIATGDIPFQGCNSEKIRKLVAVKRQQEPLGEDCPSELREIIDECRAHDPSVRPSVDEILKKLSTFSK
In short: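 Degradation is judged from MLKL band intensity on immunoblots of HepG2 lysates taken after 20-24 hours of compound at final 1 or 10 μM.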

MLKL [2] = target: T1, MLKL; assay: Measurement of binding affinity with MLKL receptor (competitive binding assay, Kd); design: made in house; host or cells: HEK 293 cell line (T7 phage in E. coli BL21-derived host is also described)
In short: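 HEK 293-expressed, DNA-tagged MLKL; ligand beads blocked with biotin and SeaBlock/1% BSA/0.05% Tween 20/1 mM DTT buffer. Cpd from 111× DMSO stock, 0.9% DMSO final. Eluted kinase by qPCR → Kd.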

FADD−/− Jurkat cells = assay: Necroptosis inhibition assay, TNF-α-induced necroptosis (CellTiter-Glo 2.0); type: cell-based, human; conditions: TNF-α 15 ng/mL; for Necroptosis inhibition assay (Rescue %) 1 μM: compound 1 μM; for Necroptosis inhibition assay (Rescue %) 10 μM: compound 10 μM
In short: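 Tested at three fixed concentrations (0.1, 1, 10 μM final) with a 30-minute room-temperature preincubation ahead of 15 ng/mL TNF-α challenge lasting 20 to 24 hours. Inhibition rate and cytotoxicity derive from ATP luminescence.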

| SMILES | Degradation assay (Degradation %) 1 μM (MLKL [1]) [%] | Degradation assay (Degradation %) 10 μM (MLKL [1]) [%] | Kd (MLKL [2]) [nM] | Necroptosis inhibition assay (Rescue %) 1 μM (FADD−/− Jurkat cells) [%] | Necroptosis inhibition assay (Rescue %) 10 μM (FADD−/− Jurkat cells) [%] |
| --- | --- | --- | --- | --- | --- |
| Nc1ncc(-c2ccc(N3CCN(CCOCCOCCNC(=O)COc4cccc5c4C(=O)N(C4CCC(=O)NC4=O)C5=O)CC3)nc2)nc1C(=O)OC(C(=O)Nc1ccc(F)cc1)c1ccccc1 (stereo not shown) [TDH-261, 2-((4-fluorophenyl)amino)-2-oxo-1-phenylethyl 3-amino-6-(6-(4-(2-(2-(2-(2-((2-(2,6-dioxopiperidin-3-yl)-1,3-dioxoisoindolin-4-yl)oxy)acetamido)ethoxy)ethoxy)ethyl)piperazin-1-yl)pyridin-3-yl)pyrazine-2-carboxylate] | 34.54 | 42.25 | 43 | 15.5 | 14.28 |
| Nc1ncc(-c2ccc(N3CCN(CCOCCOCCNC(=O)COc4ccc5c(c4)C(=O)N(C4CCC(=O)NC4=O)C5=O)CC3)nc2)nc1C(=O)OC(C(=O)Nc1ccc(F)cc1)c1ccccc1 (stereo not shown) [TDH-262, 2-((4-fluorophenyl)amino)-2-oxo-1-phenylethyl 3-amino-6-(6-(4-(2-(2-(2-(2-((2-(2,6-dioxopiperidin-3-yl)-1,3-dioxoisoindolin-5-yl)oxy)acetamido)ethoxy)ethoxy)ethyl)piperazin-1-yl)pyridin-3-yl)pyrazine-2-carboxylate] | 58.43 | 75.8 | 65 | 22.59 | 4.02 |

The next molecules have a lower Kd (MLKL [2]) than those just listed; values first:

| Degradation assay (Degradation %) 1 μM (MLKL [1]) [%] | Degradation assay (Degradation %) 10 μM (MLKL [1]) [%] | Kd (MLKL [2]) [nM] | SMILES | Necroptosis inhibition assay (Rescue %) 1 μM (FADD−/− Jurkat cells) [%] | Necroptosis inhibition assay (Rescue %) 10 μM (FADD−/− Jurkat cells) [%] |
| --- | --- | --- | --- | --- | --- |
| 38.65 | 53.35 | 18 | Nc1ncc(-c2ccc(N3CCN(CCOCCOCCNC(=O)CNc4ccc5c(c4)C(=O)N(C4CCC(=O)NC4=O)C5=O)CC3)nc2)nc1C(=O)OC(C(=O)Nc1ccc(F)cc1)c1ccccc1 (stereo not shown) [TDH-260, 2-((4-fluorophenyl)amino)-2-oxo-1-phenylethyl 3-amino-6-(6-(4-(2-(2-(2-(2-((2-(2,6-dioxopiperidin-3-yl)-1,3-dioxoisoindolin-5-yl)amino)acetamido)ethoxy)ethoxy)ethyl)piperazin-1-yl)pyridin-3-yl)pyrazine-2-carboxylate] | 14.46 | 13.52 |
| 76.27 | 71.82 | 7.4 | Nc1ncc(-c2cnn([C@H]3CCN(CCOCCOCCNC(=O)CNc4cccc5c4C(=O)N(C4CCC(=O)NC4=O)C5=O)C3)c2)nc1C(=O)OC(C(=O)Nc1ccc(F)cc1)c1ccccc1 (stereo partly drawn) [TDH-263, 2-((4-fluorophenyl)amino)-2-oxo-1-phenylethyl 3-amino-6-(1-((3S)-1-(2-(2-(2-(2-((2-(2,6-dioxopiperidin-3-yl)-1,3-dioxoisoindolin-4-yl)amino)acetamido)ethoxy)ethoxy)ethyl)pyrrolidin-3-yl)-1H-pyrazol-4-yl)pyrazine-2-carboxylate] | 16.13 | 57.97 |
| 65.05 | 53.98 | 3.4 | Nc1ncc(-c2cnn([C@H]3CCN(CCOCCOCCNC(=O)CNc4ccc5c(c4)C(=O)N(C4CCC(=O)NC4=O)C5=O)C3)c2)nc1C(=O)OC(C(=O)Nc1ccc(F)cc1)c1ccccc1 (stereo partly drawn) [TDH-264, 2-((4-fluorophenyl)amino)-2-oxo-1-phenylethyl 3-amino-6-(1-((3S)-1-(2-(2-(2-(2-((2-(2,6-dioxopiperidin-3-yl)-1,3-dioxoisoindolin-5-yl)amino)acetamido)ethoxy)ethoxy)ethyl)pyrrolidin-3-yl)-1H-pyrazol-4-yl)pyrazine-2-carboxylate] | 23.38 | 40.72 |

Reference: US20240252488A1 (KOREA RESEARCH INSTITUTE OF CHEMICAL TECHNOLOGY, priority 2020, published 2024)
